Laboratory results published in patent publication US11814375B2, “Heterocyclic compounds” (Hoffmann-La Roche Inc., priority 2019, dated 2023).

Each compound was assayed against T1, MAGL (Homo sapiens, UniProt Q99685) (assay: 2-AG assay: MAGL inhibitory activity by hydrolysis of 2-arachidonoylglycerol to arachidonic acid, followed by mass spectrometry). Conditions: 8 μM 2-arachidonoylglycerol, 15 min preincubation and 30 min reaction at RT, arachidonic acid/d8-arachidonic acid ratio by MS.
T1 sequence (Q99685 1-303): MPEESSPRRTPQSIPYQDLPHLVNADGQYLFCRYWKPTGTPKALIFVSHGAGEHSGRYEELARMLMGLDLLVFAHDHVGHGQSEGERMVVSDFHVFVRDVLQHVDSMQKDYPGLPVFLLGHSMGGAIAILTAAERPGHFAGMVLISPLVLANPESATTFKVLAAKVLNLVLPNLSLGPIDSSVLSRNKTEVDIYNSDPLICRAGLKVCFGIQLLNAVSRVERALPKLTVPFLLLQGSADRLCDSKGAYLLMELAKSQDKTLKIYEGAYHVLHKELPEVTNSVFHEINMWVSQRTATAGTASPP
Assay type: biochemical
Protocol: Compounds of formula (I) were profiled for MAGL inhibitory activity by determining the enzymatic activity by following the hydrolysis of the natural substrate 2-arachidonoylglycerol (2-AG) resulting in arachidonic acid, which can be followed by mass spectrometry. This assay is hereinafter abbreviated “2-AG assay”.
The 2-AG assay was carried out in 384 well assay plates (PP, Greiner Cat #784201) in a total volume of 20 μL. Compound dilutions were made in 100% DMSO (VWR Chemicals 23500.297) in a polypropylene plate in 3-fold dilution steps to give a final concentration range in the assay from 12.5 μM to […]. 0.25 μL compound dilutions (100% DMSO) were added to 9 μL MAGL in assay buffer (50 mM TRIS (GIBCO, 15567-027), 1 mM EDTA (Fluka, 03690-100 mL), 0.01% (v/v) Tween. After shaking, the plate was incubated for 15 min at RT. To start the reaction, 10 μL 2-arachidonoylglycerol in assay buffer was added. The final concentrations in the assay was […] and 8 μM 2-arachidonoylglyerol. After shaking and 30 min incubation at RT, the reaction was quenched by the addition of 40 μL of ACN containing 4 μM of d8-arachidonic acid. The amount of arachidonic acid was traced by an online SPE system (Agilent Rapidfire) coupled to a triple quadrupole mass spectrometer (Agilent 6460). A C18 SPE cartridge (G9205A) was used in an ACN/water liquid setup. The mass spectrometer was operated in negative electrospray mode following the mass transitions 303.1→259.1 for arachidonic acid and 311.1→267.0 for d8-arachidonic acid. The activity of the compounds was calculated based on the ratio of intensities [arachidonic acid/d8-arachidonic acid].

SMILES | IC50 [nM]
O=C1CO[C@H]2CCN(C(=O)N3CC(c4ccc(Oc5ccccc5)cc4)C3)C[C@H]2N1 [Example 1, (4aR,8aS)-6-(3-(4-Phenoxyphenyl)azetidine-1-carbonyl)hexahydro-2H-pyrido[4,3-b][1,4]oxazin-3(4H)-one] | 0.2
O=C1CO[C@H]2CCN(C(=O)N3CCC(c4ccc(Oc5ccc(F)cc5)cc4)CC3)C[C@H]2N1 [Example 54, (4aR,8aS)-6-[4-[4-(4-Fluorophenoxy)phenyl]piperidine-1-carbonyl]-4,4a,5,7,8,8a-hexahydropyrido[4,3-b][1,4]oxazin-3-one] | 10.4
O=C1CO[C@H]2CCN(C(=O)N3CC(c4ccc(-c5ccnn5CCF)cc4)C3)C[C@H]2N1 [Example 39, (4aR,8aS)-6-[3-[4-[2-(2-Fluoroethyl)pyrazol-3-yl]phenyl]azetidine-1-carbonyl]-4,4a,5,7,8,8a-hexahydropyrido[4,3-b][1,4]oxazin-3-one] | 6.7
O=C1CO[C@H]2CCN(C(=O)N3CC(c4ccc(Oc5cccnn5)cc4)C3)C[C@H]2N1 [Example 6, (+)-(4aR,8aS)-6-[3-(4-Pyridazin-3-yloxyphenyl)azetidine-1-carbonyl]-4,4a,5,7,8,8a-hexahydropyrido[4,3-b][1,4]oxazin-3-one] | 133
O=C1CO[C@H]2CCN(C(=O)N3CC(c4ccc(Oc5cccnc5)cc4)C3)C[C@H]2N1 [Example 10, (+)-(4aR,8aS)-6-[3-[4-(3-Pyridyloxy)phenyl]azetidine-1-carbonyl]-4,4a,5,7,8,8a-hexahydropyrido[4,3-b][1,4]oxazin-3-one] | 2.3
Cc1ccccc1Oc1ccc(C2CN(C(=O)N3CC[C@@H]4OCC(=O)N[C@@H]4C3)C2)cc1 [Example 21, (+)-(4aR,8aS)-6-[3-[4-(2-Methylphenoxy)phenyl]azetidine-1-carbonyl]-4,4a,5,7,8,8a-hexahydropyrido[4,3-b][1,4]oxazin-3-one] | 0.03
Cc1ccncc1Oc1ccc(C2CN(C(=O)N3CC[C@@H]4OCC(=O)N[C@@H]4C3)C2)cc1 [Example 7, (+)-(4aR,8aS)-6-[3-[4-[(4-Methyl-3-pyridyl)oxy]phenyl]azetidine-1-carbonyl]-4,4a,5,7,8,8a-hexahydropyrido[4,3-b][1,4]oxazin-3-one] | 0.5
Cc1cc(C)n(-c2ccc(C3CN(C(=O)N4CC[C@@H]5OCC(=O)N[C@@H]5C4)C3)cc2)n1 [Example 35, (4aR,8aS)-6-[3-[4-(3,5-Dimethylpyrazol-1-yl)phenyl]azetidine-1-carbonyl]-4,4a,5,7,8,8a-hexahydropyrido[4,3-b][1,4]oxazin-3-one] | 17.4
CC(C)(C)Cc1nc(-c2ccc(C3CN(C(=O)N4CC[C@@H]5OCC(=O)N[C@@H]5C4)C3)cc2)no1 [Example 37, (4aR,8aS)-6-[3-[4-[5-(2,2-Dimethylpropyl)-1,2,4-oxadiazol-3-yl]phenyl]azetidine-1-carbonyl]-4,4a,5,7,8,8a-hexahydropyrido[4,3-b][1,4]oxazin-3-one] | 2.4
O=C1CO[C@H]2CCN(C(=O)N3CC(c4ccc(Oc5nccc(C6CC6)n5)cc4)C3)C[C@H]2N1 [Example 25, (+)-(4aR,8aS)-6-[3-[4-(4-Cyclopropylpyrimidin-2-yl)oxyphenyl]azetidine-1-carbonyl]-4,4a,5,7,8,8a-hexahydropyrido[4,3-b][1,4]oxazin-3-one] | 4.2
O=C1CO[C@H]2CCN(C(=O)N3CC(c4ccc(-c5cnn(CCF)c5)cc4)C3)C[C@H]2N1 [Example 40, (4aR,8aS)-6-[3-[4-[1-(2-Fluoroethyl)pyrazol-4-yl]phenyl]azetidine-1-carbonyl]-4,4a,5,7,8,8a-hexahydropyrido[4,3-b][1,4]oxazin-3-one] | 73.1
O=C1CO[C@H]2CCN(C(=O)N3CCN(c4ccc(Oc5ccccc5)cc4)CC3)C[C@H]2N1 [Example 58, (4aR,8aS)-6-[4-(4-Phenoxyphenyl)piperazine-1-carbonyl]-4,4a,5,7,8,8a-hexahydropyrido[4,3-b][1,4]oxazin-3-one] | 1100
O=C1CO[C@H]2CCN(C(=O)N3CC(c4ccc(Oc5ccc(F)cc5F)cc4)C3)C[C@H]2N1 [Example 17, (+)-(4aR,8aS)-6-[3-[4-(2,4-Difluorophenoxy)phenyl]azetidine-1-carbonyl]-4,4a,5,7,8,8a-hexahydropyrido[4,3-b][1,4]oxazin-3-one] | 0.1
O=C1CO[C@H]2CCN(C(=O)N3CC(c4ccc(Oc5cnccc5Cl)cc4)C3)C[C@H]2N1 [Example 27, (+)-(4aR,8aS)-6-[3-[4-[(4-chloro-3-pyridyl)oxy]phenyl]azetidine-1-carbonyl]-4,4a,5,7,8,8a-hexahydropyrido[4,3-b][1,4]oxazin-3-one] | 0.3
O=C1CO[C@H]2CCN(C(=O)N3CC(c4ccc(-c5ccnc(F)c5)cc4)C3)C[C@H]2N1 [Example 44, (4aR,8aS)-6-[3-[4-(2-Fluoropyridin-4-yl)phenyl]azetidine-1-carbonyl]-4,4a,5,7,8,8a-hexahydropyrido[4,3-b][1,4]oxazin-3-one] | 67.7
O=C1CO[C@H]2CCN(C(=O)N3CCC(c4ccc(Oc5ccccc5)cc4)CC3)C[C@H]2N1 [Example 57, (4aR,8aS)-6-[4-(4-Phenoxyphenyl)piperidine-1-carbonyl]-4,4a,5,7,8,8a-hexahydropyrido[4,3-b][1,4]oxazin-3-one] | 17.8
COc1ccnc(Oc2ccc(C3CN(C(=O)N4CC[C@@H]5OCC(=O)N[C@@H]5C4)C3)cc2)n1 [Example 13, (+)-(4aR,8aS)-6-[3-[4-(4-Methoxypyrimidin-2-yl)oxyphenyl]azetidine-1-carbonyl]-4,4a,5,7,8,8a-hexahydropyrido[4,3-b][1,4]oxazin-3-one] | 12.7
CC(C)(C)Cn1ccc(-c2ccc(C3CN(C(=O)N4CC[C@@H]5OCC(=O)N[C@@H]5C4)C3)cc2)n1 [Example 32b, (4aR,8aS)-6-[3-[4-[1-(2,2-Dimethylpropyl)pyrazol-3-yl]phenyl]azetidine-1-carbonyl]-4,4a,5,7,8,8a-hexahydropyrido[4,3-b][1,4]oxazin-3-one] | 6.5
O=C1CO[C@H]2CCN(C(=O)N3CC(c4ccc(Oc5cccc(Cl)c5)nc4)C3)C[C@H]2N1 [Example 53, (4aR,8aS)-6-(3-(6-(3-Chlorophenoxy)pyridin-3-yl)azetidine-1-carbonyl)hexahydro-2H-pyrido[4,3-b][1,4]oxazin-3(4H)-one] | 12.9
O=C1CO[C@H]2CCN(C(=O)N3CC(c4ccc(Oc5ccc(OC(F)(F)F)cc5)nc4)C3)C[C@H]2N1 [Example 49, (4aR,8aS)-6-(3-(6-(4-(Trifluoromethoxy)phenoxy)pyridin-3-yl)azetidine-1-carbonyl)hexahydro-2H-pyrido[4,3-b][1,4]oxazin-3(4H)-one] | 2.4
Cc1cccc(Oc2ccc(C3CN(C(=O)N4CC[C@@H]5OCC(=O)N[C@@H]5C4)C3)cc2)n1 [Example 26, (+)-(4aR,8aS)-6-[3-[4-[(6-Methyl-2-pyridyl)oxy]phenyl]azetidine-1-carbonyl]-4,4a,5,7,8,8a-hexahydropyrido[4,3-b][1,4]oxazin-3-one] | 3.9
Cc1ccnnc1Oc1ccc(C2CN(C(=O)N3CC[C@@H]4OCC(=O)N[C@@H]4C3)C2)cc1 [Example 11, (+)-(4aR,8aS)-6-[3-[4-(4-Methylpyridazin-3-yl)oxyphenyl]azetidine-1-carbonyl]-4,4a,5,7,8,8a-hexahydropyrido[4,3-b][1,4]oxazin-3-one] | 42.9
O=C1CO[C@H]2CCN(C(=O)N3CC(c4ccc(Oc5ccc(Cl)cc5)cc4)C3)C[C@H]2N1 [Example 19, (+)-(4aR,8aS)-6-[3-[4-(4-Chlorophenoxy)phenyl]azetidine-1-carbonyl]-4,4a,5,7,8,8a-hexahydropyrido[4,3-b][1,4]oxazin-3-one] | 0.01
Cn1ccc(-c2ccc(C3CN(C(=O)N4CC[C@@H]5OCC(=O)N[C@@H]5C4)C3)cc2)n1 [Example 42, (4aR,8aS)-6-[3-[4-(1-Methylpyrazol-3-yl)phenyl]azetidine-1-carbonyl]-4,4a,5,7,8,8a-hexahydropyrido[4,3-b][1,4]oxazin-3-one] | 153
O=C1CO[C@H]2CCN(C(=O)N3CC(c4ccc(Oc5ccnnc5Cl)cc4)C3)C[C@H]2N1 [Example 12, (+)-(4aR,8aS)-6-[3-[4-(3-Chloropyridazin-4-yl)oxyphenyl]azetidine-1-carbonyl]-4,4a,5,7,8,8a-hexahydropyrido[4,3-b][1,4]oxazin-3-one] | 23.5
